# From ChEMBL document CHEMBL5303573, “Mapping human microbiome drug metabolism by gut bacteria and their genes” (Nature, 2019)
# Legend:
# Type in all cases: ADME
# Set-up in all cases: dose 2 uM
# Conditions in all cases: 2 µM
# [1] = target: T1, Nitroreductase domain-containing protein (Phocaeicola dorei, UniProt B6W3P3); test: (§1) The drug is tested on Bacteroides dorei strain: DSM17855 for biotransformation. The drug concentrations were measured before and after a 12-h incubation by liquid-chromatography-coupled mass spectrometry (LC–MS)
# T1 sequence (B6W3P3 whole entry): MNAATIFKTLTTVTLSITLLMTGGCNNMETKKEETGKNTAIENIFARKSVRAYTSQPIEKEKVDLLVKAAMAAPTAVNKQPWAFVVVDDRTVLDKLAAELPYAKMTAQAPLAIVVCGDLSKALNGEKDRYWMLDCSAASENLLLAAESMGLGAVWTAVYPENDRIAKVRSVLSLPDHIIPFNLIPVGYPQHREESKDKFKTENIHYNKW
# Esterase = target: T2, Esterase (Phocaeicola dorei, UniProt B6W2J6); test: as §1
# T2 sequence (B6W2J6 whole entry): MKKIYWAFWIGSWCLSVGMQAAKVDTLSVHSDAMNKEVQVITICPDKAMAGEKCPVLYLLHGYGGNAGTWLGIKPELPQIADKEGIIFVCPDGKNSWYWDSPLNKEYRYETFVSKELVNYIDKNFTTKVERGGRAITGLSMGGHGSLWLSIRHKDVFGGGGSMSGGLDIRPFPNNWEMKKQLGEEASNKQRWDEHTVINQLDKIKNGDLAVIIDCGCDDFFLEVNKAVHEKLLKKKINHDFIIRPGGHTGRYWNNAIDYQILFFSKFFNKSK
# [2] = target: T3, SGNH hydrolase-type esterase domain-containing protein (Phocaeicola dorei, UniProt B6W293); test: as §1
# T3 sequence (B6W293 whole entry): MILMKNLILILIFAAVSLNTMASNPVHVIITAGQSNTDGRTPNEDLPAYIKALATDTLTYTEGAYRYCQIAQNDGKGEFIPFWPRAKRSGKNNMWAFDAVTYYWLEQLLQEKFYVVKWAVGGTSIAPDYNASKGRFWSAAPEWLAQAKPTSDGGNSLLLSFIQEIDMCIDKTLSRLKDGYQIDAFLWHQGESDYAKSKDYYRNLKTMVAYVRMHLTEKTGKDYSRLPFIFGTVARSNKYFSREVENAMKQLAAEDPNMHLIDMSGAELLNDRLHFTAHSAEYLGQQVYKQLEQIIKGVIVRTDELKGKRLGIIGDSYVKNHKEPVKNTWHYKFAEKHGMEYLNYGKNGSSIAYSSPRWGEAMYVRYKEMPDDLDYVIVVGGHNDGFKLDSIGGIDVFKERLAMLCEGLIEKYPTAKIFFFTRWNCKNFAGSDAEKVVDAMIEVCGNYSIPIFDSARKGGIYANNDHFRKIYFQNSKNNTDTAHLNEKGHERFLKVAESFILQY
# [3] = target: T4, SGNH hydrolase-type esterase domain-containing protein (Phocaeicola dorei, UniProt B6W1J1); test: as §1
# T4 sequence (B6W1J1 whole entry): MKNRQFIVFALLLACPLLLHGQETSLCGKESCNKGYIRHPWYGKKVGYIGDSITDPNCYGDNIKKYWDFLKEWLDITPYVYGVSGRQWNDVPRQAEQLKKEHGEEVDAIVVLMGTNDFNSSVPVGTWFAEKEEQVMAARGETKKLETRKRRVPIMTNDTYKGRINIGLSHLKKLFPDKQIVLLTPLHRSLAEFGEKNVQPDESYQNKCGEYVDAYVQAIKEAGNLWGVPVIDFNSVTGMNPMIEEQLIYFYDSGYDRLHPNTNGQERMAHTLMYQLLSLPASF
# [4] = target: T5, Steroid 5-alpha reductase C-terminal domain-containing protein (Phocaeicola dorei, UniProt B6W0N3); test: as §1
# T5 sequence (B6W0N3 whole entry): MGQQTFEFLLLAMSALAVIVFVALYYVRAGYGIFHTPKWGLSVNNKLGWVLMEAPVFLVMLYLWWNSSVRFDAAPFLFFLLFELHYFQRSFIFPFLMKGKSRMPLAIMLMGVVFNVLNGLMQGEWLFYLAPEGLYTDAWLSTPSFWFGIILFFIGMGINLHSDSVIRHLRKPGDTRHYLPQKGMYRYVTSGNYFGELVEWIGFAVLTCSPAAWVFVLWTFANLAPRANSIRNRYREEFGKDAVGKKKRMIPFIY
# [5] = target: T6, SGNH hydrolase-type esterase domain-containing protein (Phocaeicola dorei, UniProt B6VTE7); test: as §1
# T6 sequence (B6VTE7 whole entry): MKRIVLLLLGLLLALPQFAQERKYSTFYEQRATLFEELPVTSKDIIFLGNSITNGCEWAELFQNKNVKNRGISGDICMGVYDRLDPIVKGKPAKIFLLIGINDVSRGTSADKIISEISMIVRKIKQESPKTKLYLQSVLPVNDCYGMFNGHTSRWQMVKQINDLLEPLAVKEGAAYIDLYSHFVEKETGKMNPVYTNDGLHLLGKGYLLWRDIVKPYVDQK
# [6] = target: T7, Nitroreductase domain-containing protein (Phocaeicola dorei, UniProt B6VU18); test: as §1
# T7 sequence (B6VU18 whole entry): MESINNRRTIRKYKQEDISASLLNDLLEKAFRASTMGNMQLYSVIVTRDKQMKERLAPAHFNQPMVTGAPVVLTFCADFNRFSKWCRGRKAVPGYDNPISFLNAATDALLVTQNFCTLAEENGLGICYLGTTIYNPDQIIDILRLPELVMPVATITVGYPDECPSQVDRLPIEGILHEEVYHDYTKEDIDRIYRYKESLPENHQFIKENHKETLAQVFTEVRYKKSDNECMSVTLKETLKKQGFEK
# [7] = target: T8, Acyltransferase 3 domain-containing protein (Phocaeicola dorei, UniProt B6W2J3); test: as §1
# T8 sequence (B6W2J3 whole entry): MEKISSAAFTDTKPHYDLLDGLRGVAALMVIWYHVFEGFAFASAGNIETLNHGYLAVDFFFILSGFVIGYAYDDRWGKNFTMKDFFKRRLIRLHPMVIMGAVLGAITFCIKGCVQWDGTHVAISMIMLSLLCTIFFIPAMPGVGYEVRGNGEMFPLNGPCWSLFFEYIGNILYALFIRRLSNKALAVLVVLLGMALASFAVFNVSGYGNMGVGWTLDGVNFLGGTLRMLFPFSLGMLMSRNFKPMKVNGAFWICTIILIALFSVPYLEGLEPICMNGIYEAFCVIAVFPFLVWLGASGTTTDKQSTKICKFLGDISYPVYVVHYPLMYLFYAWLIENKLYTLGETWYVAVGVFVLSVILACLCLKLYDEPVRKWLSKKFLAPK
Bacterial Biotransformation [1],Bacterial Biotransformation (Esterase),Bacterial Biotransformation [2],Bacterial Biotransformation [3],Bacterial Biotransformation [4],Bacterial Biotransformation [5],Bacterial Biotransformation [6],Bacterial Biotransformation [7],SMILES
Compound NOT metabolized,Compound NOT metabolized,Compound NOT metabolized,Compound NOT metabolized,Compound metabolized,Compound NOT metabolized,Compound NOT metabolized,Compound NOT metabolized,C[C@]12CCC(=O)C=C1[C@@H]1C[C@@H]1[C@H]1[C@@H]3[C@@H]4C[C@@H]4[C@@]4(CCC(=O)O4)[C@@]3(C)CC[C@@H]12 [DROSPIRENONE]
Compound NOT metabolized,Compound NOT metabolized,Compound NOT metabolized,Compound NOT metabolized,Compound NOT metabolized,Compound NOT metabolized,Compound NOT metabolized,Compound metabolized,N#Cc1ccc2c(c1)N(CCCN1CCC(O)CC1)c1ccccc1S2 [PERICIAZINE]
